Data as given in patent US7427590B2, “Neurothrophic components of the ADNF I complex” (The United States of America as represented by the …, priority 2001, dated 2008).
“Also recorded” adds a separate entry of the source. Read-outs that look alike come from different tables or passages of the source. Non-standard residues stand in square brackets, D forms with d. Residues, ends and D or L forms follow the SMILES beside them. *: point of attachment. Sta = CC(C)C[C@H](N)[C@@H](O)CC(=O)O; Isovaleryl = CC(C)CC(=O)*

What was measured:
[1] = tested on: dissociated cerebral cortical cultures; assay type: cell-based, rat
[2] = tested on: 14 kDa purified ADNF I complex; assay type: cell-based; conditions: pre-treatment of ADNF I, 1 μM TTX; for Effect on survival-promoting peak of component II (10^−8 dilution): 1 μM pepstatin A or 10 μg/ml E-64; for Effect on survival-promoting peak of component I (10^−12 dilution) / Effect on survival-promoting peak of component III (10^−5 dilution): 1 μM pepstatin A, 10 μg/ml E-64 or 0.1 mM subtilisin V inhibitor
[3] = tested on: component II of the ADNF I complex; experiment: Blockade of component II protease activity in cell-free protease assay; assay type: biochemical; conditions: 10 μl of pepstatin stock (1 mg/ml methanol, diluted 1:100)
Method: FIG. 28. A time course of component II (see FIGS. 26 and 27) in a cell-free protease assay using Bz-Arg-Gly-Phe-Phe-Pro-MβNA, HCl (Cathepsin D substrate). The conditions of the assay are as follows: 10 μl of substrate (5 mg dissolved in 100 μl of DMSO (dimethyl sulfoxide), diluted to 1 ml of water), 10 μl of 10 mM CaCl2; 50 μl of component II (10^−8 dilution of the preparation characterized in FIGS. 26 and 27); and 30 μl of buffer (0.5 M dibasic phosphate, pH 7.8). For this assay, buffer, enzyme, calcium were added to 96 well culture trays. Based on glycoprotein alpha-1 acid standards on NCHO capillary, the optimum protease activity is observed at 1 fM amounts of components II.
FIG. 29. […] In culture wells treated with pepstatin, 10 μl of the stock solution (1 mg dissolved in 1 ml of methanol, diluted 1:100 with water) was added. In control wells, an addition 10 ul of methanol/water (1:100 dilution in water) alone was added. Fluorescence changes indicative of peptide subtract cleavage were monitored as described in FIG. 28.

Molecule | Survival-promoting activity of digest peptide fractions (neuronal cell counts) [1] | Effect on survival-promoting peak of component II (10^−8 dilution) [2] | Effect on survival-promoting peak of component I (10^−12 dilution) [2] | Effect on survival-promoting peak of component III (10^−5 dilution) [2] | other results
GPTADITLTK | Significant increases in neuronal cell counts | – | – | – | –
CC(C)CC(=O)N[C@H](C(=O)N[C@H](C(=O)N[C@@H](CC(C)C)[C@@H](O)CC(=O)N[C@@H](C)C(=O)N[C@@H](CC(C)C)[C@@H](O)CC(=O)O)C(C)C)C(C)C [Pepstatin A] (Isovaleryl-VV[Sta]A[Sta]-OH) | – | prevented | small decrease | not affected | Effect on survival-promoting peak of component II (10^−8 dilution) ([2]; listed as pepstatin A): blocked; Effect on survival-promoting peak of component II (10^−8 dilution) ([2]; listed as peptstatin A): inhibited; Effect on component II-mediated increases in protease activity [3]: prevent the component II-mediated increases in protease activity
C[C@H](NC(=O)OC(C)(C)C)C(=O)N1CCC[C@H]1C(=O)N[C@@H](Cc1ccccc1)C(=O)NOC(=O)c1ccc(Cl)cc1 [subtilisin V inhibitor, Boc-Ala-Pro-Phe-NHO-Bz-pCl] | – | – | enhanced | enhanced | –
NNSTTYAPISANVSTALGSTAALPTAAGPV | Significant increases in neuronal cell counts | – | – | – | Another peak of activity (concentration) [1]: 10^−8 M
CC(C)C[C@H](NC(=O)[C@H]1O[C@@H]1C(=O)O)C(=O)NCCCCN=C(N)N [E-64] | – | not diminished | inhibited; also recorded: prevented; also recorded: blocked | inhibited; also recorded: prevented; also recorded: blocked | –
SESSGTSELLTR | Significant increases in neuronal cell counts | – | – | – | –
